Measured values from patent US20220204509A1, “PYRIMIDO FIVE-MEMBERED HETEROCYCLIC COMPOUND AND USE THEREOF AS MUTANT IDH2 INHIBITOR” (EPITAS BIOSCIENCES (SHANGHAI) CO., LTD., priority 2019, published 2022).
Where a chain is given by its changes, count along the chain named.

What was measured:
IDH2/R140Q [1] = target: T1, IDH2/R140Q (Homo sapiens, UniProt P48735, R140Q); experiment: Determination of the inhibitory activity of the compounds on IDH2/R140Q (NADPH reduction, resazurin/lipoamide dehydrogenase detection); type: biochemical; parameters: purchased Abcam ab198153; conditions: IDH2/R140Q inhibitory activity; pre-incubated at 25° C. for 16 hours; read-out: IC50
T1 sequence (P48735 40-452 R140Q): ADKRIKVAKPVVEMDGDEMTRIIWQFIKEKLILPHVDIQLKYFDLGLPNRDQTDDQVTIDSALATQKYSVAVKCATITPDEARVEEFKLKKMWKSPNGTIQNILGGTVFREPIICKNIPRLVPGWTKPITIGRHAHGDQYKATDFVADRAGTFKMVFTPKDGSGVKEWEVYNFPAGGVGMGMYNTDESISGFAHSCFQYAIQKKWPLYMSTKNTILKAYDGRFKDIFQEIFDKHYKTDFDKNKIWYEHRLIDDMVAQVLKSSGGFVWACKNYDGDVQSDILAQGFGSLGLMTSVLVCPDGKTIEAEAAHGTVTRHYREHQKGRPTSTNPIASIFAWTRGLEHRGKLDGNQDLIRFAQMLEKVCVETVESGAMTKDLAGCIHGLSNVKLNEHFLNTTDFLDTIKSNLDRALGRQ
Protocol: In this example, the inhibitory activity of a compound on IDH2/R140Q was determined by measuring the reduction of the cofactor NADPH. The compound was incubated with IDH2/R140Q and NADPH, and then the reaction was initiated by adding α-KG. After a certain time of reaction under linear conditions, lipoamide dehydrogenase and the corresponding substrate resazurin were added for detection. Lipoamide dehydrogenase terminated the IDH2/R140Q reaction bγ subtracting the available cofactor NADPH. It oxidized NADPH to NADP, and reduced resazurin to highly fluorescent resorufin. The production of resorufin was detected to quantify the amount of cofactor NADPH remaining after a specific reaction time.
Then 25 μL of a stop mixed solution (lipoamide dehydrogenase 36 μg/mL, resazurin 30 μM) prepared with the above reaction buffer was added to convert resazurin to resorufin to measure the remaining NADPH. After 10 minutes of incubation at 25° C., the fluorescence value was measured by Tecan […] […] The enzyme activity was measured at 10 concentrations for each compound, and multiple background holes without enzyme and full enzyme activity holes without compound were set up in the reaction. The concentration of dimethyl sulfoxide in the system was less than or equal to 2%. […] The multi-well plate in this example was purchased from Thermo Fisher Scientific, NADPH, α-KG, lipoamide dehydrogenase, and resazurin were purchased from Shenggong Bioengineering Co., Ltd., and IDH2/R140Q was purchased from Abcam (ab198153).

IDH2/WT = target: T2, IDH2/WT (Homo sapiens, UniProt P48735); experiment: Determination of the selectivity of compounds to wild-type IDH2 (IDH2/WT); type: biochemical; conditions: Inhibitory activity on IDH2/WT; pre-incubated at 25° C. for 16 hours
T2 construct: made in house; host or cells: E. coli
T2 sequence (P48735 40-452): T1 sequence (P48735 40-452 R140Q) with Q101R
Protocol: The compound was incubated with IDH2/WT and NADP, and then the reaction was initiated by adding isocitrate. After a certain time of reaction under linear conditions, lipoamide dehydrogenase and resazurin were added to detect the amount of fluorescent substances. In this experiment, NADP was reduced to NADPH. The latter reduced resazurin to highly fluorescent resorufin under the action of lipoamide dehydrogenase. The production of resorufin was detected to quantify the amount of cofactor NADPH generated after a specific reaction time, so as to calculate the compound's inhibitory effect on IDH2/WT.
Specifically, in a 96-well plate, in a total reaction volume of 50 μL, a mixture of 0.6 nM IDH2/WT, serially diluted inhibitors, and 50 μM NADP in a reaction buffer containing Tris-HCl 20 mM (pH 7.5), 150 mM NaCl, 10 mM MgCl2, 10% Glycerol, 0.03% BSA, and 2.5 mM β-mercaptoethanol, was pre-incubated at 25° C. for 16 hours. Isocitrate was added to 50 μM and the reaction was carried out at 25° C. for 30 minutes. Then 25 μL of a mixed solution (lipoamide dehydrogenase 36 μg/mL, resazurin 30 μM) prepared with the above reaction buffer was added to convert resazurin to resorufin to measure the NADPH produced. After 10 minutes of incubation at 25° C., the fluorescence value was measured by Tecan INFINITE F FLEX under Ex544/Em590. The enzyme activity was measured at 10 concentrations for each compound, and multiple background holes without enzyme and full enzyme activity holes without compound were set up in the reaction. The concentration of dimethyl sulfoxide in the system was less than or equal to 2%. The value of IC50 was obtained by the formula: Y=100/(1+10^((Log IC50−X)*HillSlope)) using XLFit5 software (IDBS Software). In the method, the multi-well plate was purchased from Thermo Fisher Scientific, NADP, α-KG, lipoamide dehydrogenase, and resazurin were purchased from Shenggong Bioengineering Co., Ltd., and IDH2/WT was obtained by purification after E. coli overexpression.

IDH2/R140Q [2] = target: T1, IDH2/R140Q; experiment: Inhibition of mutant IDH2 activity at the cell level (extracellular 2-HG, U87MG overexpressing IDH2/R140Q); type: cell-based; conditions: U87MG overexpressing IDH2/R140Q; 2-HG in medium after 24 hours of culturing with compound; read-out: IC50
Protocol: 2-hydroxyglutarate dehydrogenase (2HGDH) can reduce NAD+ to NADH in the presence of 2-HG. The latter can be quantitatively detected by diaphorase and its substrate Resazurin.
The glioma cells U87MG overexpressing IDH2/R140Q mutation were cultured in 1% sodium pyruvate high-sugar MEM, 10% FBS, and placed in a CO2 incubator (37° C., 5% CO2, 95% air) for cultivation.
The cells were digested with trypsin and seeded in a 96-well plate at a density of 1×10^4 with a medium of 200 μL and cultured in a 37° C. incubator overnight. The next day, the test compound was added to a final concentration of 0.1% for DMSO. […] The protein and other components in the medium that may interfere with the results were filtered, and the follow-up method was used to detect the content of 2-HG. 50 uL CellTiter-Glo (purchased from Promega) was added to the 96-well plate with the remaining 100 μL of medium to detect cell survival;
Extracellular 2-HG detecting system:
(1) 50 μL reaction system: reaction buffer (50 mM Tris pH7.5, 100 mM NaCl, 20 mM MgCl2, 0.05% BSA), in which the final concentration of NAD+ was 40 μM, the final concentration of 2HGDH was 20 nM, and the test sample was added to 5 μL of medium; the reaction solution was mixed and centrifuged, and the reaction was carried out for 1 hour at 25° C. in the dark;
Preparation of 2-HG standard curve: a 2-HG stock solution was diluted to 20 μM with reaction buffer, and a 2-fold gradient diluting was performed for a total of 6 points. Afterwards, the above-mentioned 2-HG was measured according to the extracellular 2-HG detecting system, and a standard curve was calculated and drawn.
Calculation of extracellular 2-HG content:
The fluorescence value obtained in the extracellular 2-HG detecting system was calculated using the 2-HG standard curve to calculate the content of 2-HG in the medium, and DMSO was used as a negative control to calculate the compound's inhibition against IDH2/R140Q mutation producing 2-HG activity.

SMILES	IC50 (IDH2/R140Q [1])	IC50 (IDH2/WT)	IC50 (IDH2/R140Q [2])
Cc1cc2c(NC3CC3)nc(-c3ccccc3)nc2[nH]1 [Compound 23, N-cyclopropyl-6-methyl-2-phenyl-7H-pyrrolo[2,3-d]pyrimidin-4-amine]	100 to 1000 nM	> 5 µM	100 to 1000 nM
Cc1cc2c(NC(C)C)nc(-c3ccccc3F)nc2[nH]1 [Compound 25, 2-(2-fluorophenyl)-N-isopropyl-6-methyl-7H-pyrrolo[2,3-d]pyrimidin-4-amine]	100 to 1000 nM	> 5 µM	100 to 1000 nM
Cc1cc2c(NC3CC3)nc(-c3ccccc3F)nc2[nH]1 [Compound 28, N-cyclopropyl-2-(2-fluorophenyl)-6-methyl-7H-pyrrolo[2,3-d]pyrimidin-4-amine]	100 to 1000 nM	> 5 µM	< 100 nM
Cc1cc2c(Nc3cccc(F)c3)nc(-c3ccccc3)nc2[nH]1 [Compound 31, N-(3-fluorophenyl)-6-methyl-2-phenyl-7H-pyrrolo[2,3-d]pyrimidin-4-amine]	1000 to 10000 nM		1000 to 10000 nM
Cc1cc2c(NC3CC3)nc(-c3cccc(F)c3)nc2[nH]1 [Compound 34, N-cyclopropyl-2-(3-fluorophenyl)-6-methyl-7H-pyrrolo[2,3-d]pyrimidin-4-amine]	1000 to 10000 nM		100 to 1000 nM
Cc1cc2c(NC3CCCCC3)nc(-c3ccccc3)nc2[nH]1 [Compound 37, N-cyclohexyl-6-methyl-2-phenyl-7H-pyrrolo[2,3-d]pyrimidin-4-amine]	1000 to 10000 nM		1000 to 10000 nM
Cc1cc2c(NC3CC3)nc(-c3ccc(F)cc3)nc2[nH]1 [Compound 38, N-cyclopropyl-2-(4-fluorophenyl)-6-methyl-7H-pyrrolo[2,3-d]pyrimidin-4-amine]	1000 to 10000 nM		1000 to 10000 nM
Cc1cc2c(NCC(C)C)nc(-c3ccccc3)nc2[nH]1 [Compound 39, N-isobutyl-6-methyl-2-phenyl-7H-pyrrolo[2,3-d]pyrimidin-4-amine]	100 to 1000 nM		100 to 1000 nM
Cc1cc2c(-c3ccccc3)nc(NC(C)C)nc2[nH]1 [Compound 40, N-isopropyl-6-methyl-4-phenyl-7H-pyrrolo[2,3-d]pyrimidin-2-amine]	> 10000 nM		> 10000 nM
Cc1cc2c(Nc3cccc(Cl)c3)nc(-c3ccccc3)nc2[nH]1 [Compound 41, N-(3-chlorophenyl)-6-methyl-2-phenyl-7H-pyrrolo[2,3-d]pyrimidin-4-amine]	1000 to 10000 nM		1000 to 10000 nM
Cc1cccc(-c2nc(NC3CC3)c3cc(C)[nH]c3n2)c1 [Compound 42, N-cyclopropyl-6-methyl-2-(m-tolyl)-7H-pyrrolo[2,3-d]pyrimidin-4-amine]	100 to 1000 nM		100 to 1000 nM
Cc1cc2c(NC3CC3)nc(-c3ccccc3C)nc2[nH]1 [Compound 43, N-cyclopropyl-6-methyl-2-(o-tolyl)-7H-pyrrolo[2,3-d]pyrimidin-4-amine]	1000 to 10000 nM		100 to 1000 nM
CCOC(=O)Cc1cc2c(Nc3ccccc3)nc(-c3ccccc3)nc2[nH]1 [Compound 44]	1000 to 10000 nM		1000 to 10000 nM
Cc1ccc(-c2nc(NC3CC3)c3cc(C)[nH]c3n2)cc1 [Compound 45, N-cyclopropyl-6-methyl-2-(p-tolyl)-7H-pyrrolo[2,3-d]pyrimidin-4-amine]	1000 to 10000 nM		1000 to 10000 nM
CC(C)Nc1nc(-c2ccccc2)nc2[nH]c(-c3ccccc3)cc12 [Compound 46, N-isopropyl 2,6-diphenyl-7H-pyrrolo[2,3-d]pyrimidin-4-amine]	> 10000 nM		> 10000 nM
Cc1cc2c(NC3CC3)nc(-c3ccc(O)cc3)nc2[nH]1 [Compound 47, 4-(4-(cyclopropylamino)-6-methyl-7H-pyrrolo[2,3-d]pyrimidin-2-yl)phenol]	100 to 1000 nM		100 to 1000 nM
Cc1cc2c(NC3CCC3)nc(-c3ccccc3F)nc2[nH]1 [Compound 48, N-cyclobutyl-2-(2-fluorophenyl)-6-methyl-7H-pyrrolo[2,3-d]pyrimidin-4-amine]	< 100 nM		< 100 nM
CC(C)Nc1nc(-c2ccccc2)nc2[nH]c(C(F)(F)F)cc12 [Compound 49, N-isopropyl-2-phenyl-6-(trifluoromethyl)-7H-pyrrolo[2,3-d]pyrimidin-4-amine]	< 100 nM		< 100 nM
Cc1cc2c(Nc3ccccc3)nc(-c3ccccc3F)nc2[nH]1 [Compound 50, 2-(2-fluorophenyl)-6-methyl-N-phenyl-7H-pyrrolo[2,3-d]pyrimidin-4-amine]	100 to 1000 nM		100 to 1000 nM
Cc1cc2c(NC3CCCC3)nc(-c3ccccc3F)nc2[nH]1 [Compound 51, N-cyclopentyl-2-(2-fluorophenyl)-6-methyl-7H-pyrrolo[2,3-d]pyrimidin-4-amine]	< 100 nM		< 100 nM
